Test results from patent US7824912B2, “Methods for ex vivo propagation of adult hepatic stem cells” (Massachusetts Institute of Technology, priority 2005, dated 2010).

Columns and labels:
[1] = system: CYP3A4
Procedure: FIG. 14A, cells were grown in a collagen-Matrigel™ sandwich with serum supplemented medium. FIG. 14B, cells were grown under routine culture conditions, but with serum-free medium. Data are the mean of replicate assays (n=2). Error bars indicate the standard deviation of replicate assays.
We undertook an evaluation of CYP3A4 activity in phHASC strains using a commercially available luciferase-based luminescent assay. The p450-GLO™ CYP3A4 luminescent assay was supplied by Promega Corp. (Madison, Wis.). The assay is based on a caged luciferin substrate that is specifically uncaged by the enzymatic action of CYP3A4. Once uncaged, luciferin is available for luciferase action and light production.
We evaluated the effect of rifampicin under two different conditions with two different concentrations of the solvent carrier DMSO, 0.03% and 5%. Parental phHASCs were evaluated after growth in a collagen-Matrigel™ sandwich, as recommended by the supplier of the p450-GLO™ CYP3A4 luminescent assay (FIG. 14A) or under standard culture conditions with serum-free medium (FIG. 14B).

[2] = system: somatic liver stem cells; experiment: Derivation of phHASC strains from liver cells by the modified SACK method; type: cell-based, human
Procedure: Cells: Human liver cells are tested for blood borne agents, the non-parenchymal (NPC) fraction is place on ice for up to 24 hours and then centrifuged at 800×g for 5 minutes at 4° C. The resulting cell pellet is re-suspended in 50 ml-100 ml cold Dulbecco's Modified Eagle medium (DMEM-high glucose) supplemented with 1% dialyzed fetal bovine serum (DFBS). Based on the count of trypan blue-excluding viable cells, 5×10^6 viable cells are plated in 10-cm diameter cell culture dishes. Initiation Culture Medium: […] Maintenance Culture Medium: DMEM-high glucose supplemented with 10% DFBS, 20 ng/ml recombinant human epidermal growth factor, 0.5 ng/ml transforming growth factor β1, and the respective purine compound at the concentration used in the Initiation Culture Medium. Although initial efforts to derive cell strains by limiting dilution cloning were unsuccessful, we modified the approach by initially culturing primary liver cell preparations at confluent cell densities under conditions of reduced serum and supplementation with SACK agents, TGF-β and EGF (See Table 1). SACK-derived rat adult stem cell strains resist hepatocytic differentiation by TGF-β and EGF. Whereas their non-stem cell progeny undergo cell cycle withdrawal and hepatic differentiation in response to serum reduction and exposure to TGF-β and EGF, in the presence of Xs, the stem cells continue to cycle actively. The first four livers were invested in establishing a modified SACK procedure. Unlike the original procedure developed for derivation of rat hepatic adult stem cells (Lee et al., 2003), the new method is not based on limiting dilution cloning. Instead, the liver cells are initially cultured at confluent cell densities in low serum medium (1% dialyzed fetal bovine serum [dFBS]) supplemented with the growth factors TGFβ and EGF. In addition, higher concentrations of SACK agents are used, e.g. 1.5 mM Xs. These conditions suppress the growth of differentiating liver cells (including troublesome fibroblasts and stellate cells), while promoting the expansion of […]. After initial outgrowth of […] strains, serum supplementation is increased to 10% dFBS for routine maintenance. Table 1 summarizes results obtained when the newly adapted SACK procedure was applied to cell specimens from two livers from […] donors. All strains were cryo-preserved at early passages using a freezing procedure that minimizes the time that cells spend super-cooled before ice formation (Karlsson et al., 1996). This precaution provides a high level of viability (70%-80%) upon thawing the cells.

[3] = system: phHASC subclone C2; experiment: Colcemid arrest assay (CAA) of non-cycling cell fraction; type: cell-based, human; conditions: subclone C2, +Xs compared to -Xs
Procedure: FIGS. 12A and 12B show CAA analyses of a Xs-derived sub-clone (Parental strain see FIG. 10). […] The new assay is called the colcemid arrest assay (CAA). We used our engineered cell lines with experimentally controlled asymmetric self-renewal to develop it (Rambhatla et al., 2001; FIG. 9). Cell cultures are treated with the microtubule antagonist colcemid for a complete generation period. Conventional methods for propidium iodine staining and standard flow cytometry are used to quantify the DNA content of cells after colcemid treatment. In the presence of colcemid, cycling cells arrest in mitosis of the cell cycle with 4N DNA content. After one generation period, all previously cycling cells contain this amount of DNA. Therefore, for cell cultures with only symmetrically cycling cells, essentially the entire culture arrests in mitosis with 4N DNA (compare FIGS. 9A and 9C). In contrast, the DNA content of non-cycling cells is unchanged. […] Thus, CAA can identify and quantify the cycling stem cell fraction and the arrested differentiated progeny fraction of an asymmetrically self-renewing adult stem cell population (compare FIGS. 9B and 9D). […] In pilot studies with engineered cell lines, the CAA-determined rates were in good agreement with expectations based on previous lineage-specific cell kinetics assays. […]

effect on basal level of CYP3A4 activity [1]	increase in CYP3A4 activity ([1]; human, 48 h, 5 %) [fold]	Compound	Number of Strains ([2]; liver, 2 trials per SACK agent)	Number of Strains ([2]; liver, 3 trials per SACK agent)	reliability and effectiveness for developing strains ([2]; compared among Hx, Xn and Xs)	Sub-clones ([2]; liver)	non-cycling fraction [3]
did not affect	6.5	C[S+](C)[O-] [DMSO, dimethylsulfoxide]					
		O=c1[nH]cnc2nc[nH]c12 [Hx, hypoxanthine]	2	3			
		O=c1[nH]c(=O)c2[nH]cnc2[nH]1 [Xn, xanthine]	1	3			
		O=c1[nH]c(=O)c2ncn([C@@H]3O[C@H](CO)[C@@H](O)[C@H]3O)c2[nH]1 [Xs, xanthosine]	2	1	most reliable and effective	9	reduced
